In article PMC12509006, “Synthesis and Evaluation of Pyridine-Based Antibacterial Agents that Inhibit ATP Synthase in Acinetobacter baumannii” (ACS Omega, 2025):
Values after ≈ are worked out from the molar mass of the structure shown. Read-outs that look alike come from different tables or passages of the source.

Columns and labels:
[1] = system: AB ATCC 17978; test: Broth microdilution antimicrobial susceptibility assay, susceptible isolate; conditions: Acinetobacter baumannii, ATCC17978, read-out: MIC, AB ATCC 17978
[2] = molecular target: T1, A. baumannii ATP synthase (Acinetobacter baumannii, UniProt A3M139); test: AB ATP synthase inhibition: NADH-driven ATP synthesis in inverted inner membrane vesicles, luciferin/luciferase readout; type: biochemical; conditions: for Hill coefficient (Hill slope): fit of ATP synthesis dose response curve
T1 construct: endogenous electron transport chains of inverted inner membrane vesicles were energized with NADH; endogenous in cells; host or cells: inverted inner membrane vesicles prepared from A. baumannii ATCC 17978 cells
Method: Once synthesized, the pyridine compounds were tested for their ability to inhibit ATP synthase activity using our previously reported luciferin/luciferase assay. Briefly, endogenous electron transport chains of inverted inner membrane vesicles were energized with NADH to generate a proton gradient and to drive ATP synthesis. ATP was measured via luminescence from the luciferase-catalyzed oxidation of D-luciferin. Luminescence activities across increasing inhibitor concentrations were corrected for gradient independent background sources of ATP by comparison with a control containing the protonophore CCCP (carbonyl cyanide 3-chlorophenylhydrazone). The data were then fit to a four-parameter logistic dose–response curve, from which IC50 values and Hill coefficients were determined using a nonlinear least-squares regression.
A. baumannii (ATCC 17978) cells were grown in LB medium at 37 °C with shaking at 150 rpm and harvested by centrifugation in the late exponential phase of growth. Cells were resuspended in TMG buffer (50 mM Tris-HCl, pH 7.5, 5 mM MgCl2, 10% v/v glycerol) with 1 mM phenylmethanesulfonyl fluoride, 1 mM dithiothreitol, and a small amount of DNase and lysed by two passes through an Avestin B15 homogenizer at 19,000 psi. Lysate was cleared by centrifugation at 9000g and inverted membrane vesicles were collected from the supernatant by centrifugation at 169,000g. To reduce background ATP synthesis activity in AB vesicles, it was important to wash the membranes by resuspending in TMG buffer and centrifuging again at 169,000g. Washed pellets were resuspended in TMG buffer, and aliquots were stored at −80 °C. Once thawed, aliquots were not refrozen. Protein concentration in membrane vesicles was determined using a modified Lowry assay.
In vitro ATP synthesis activity of inverted inner membrane vesicles was measured as previously described. A reaction solution was prepared containing 5 mM tricine-KOH, pH 8.0, 50 mM KCl, 2.5 mM MgCl2, 0.1 mM adenosine diphosphate, 3.75 mM potassium phosphate, and 2.5 mM NADH and distributed into a 96-well plate. NADH-driven ATP synthesis was initiated by addition of inverted vesicles to 50 μg/mL and allowed to proceed for 10 min. The reaction was stopped by transferring an aliquot into 1% trichloroacetic acid. The stopped reaction was diluted 100-fold with deionized water and a sample was transferred to luciferase solution containing 25 mM tricine-NaOH, pH 7.8, 5 mM MgSO4, 0.1 mM EDTA, 0.1 mM NaN3, 150 μg/mL luciferin, and 7.5 μg/mL luciferase. Luminescence was measured in an opaque white 96-well plate using a BioTek H1 multimode plate reader. Each replicate set included a positive control containing DMSO with no compound and a negative control containing carbonyl cyanide 3-chlorophenylhydrazone (CCCP). Luminescence values were corrected for background by subtracting the CCCP control and normalized to the luminescence of the DMSO control. Normalized activity was fit using a variable-slope dose response curve. Nonlinear regression, including prediction of 95% confidence bands, and pairwise comparisons of fits using the F-test method were completed using GraphPad Prism10. Relativeactivity=1/1+(c/IC50)^Hillslope […]
Figure S1. ATP synthesis inhibition by all pyridine compounds in order of WSA compound number. ATP synthesis activities in inverted inner membrane vesicles prepared from AB cells were measured in the presence of 0.0625-64 µg/mL, corrected for background ATP, and normalized to activity with DMSO alone (see methods). For each plot, dots are normalized activities at each concentration (n≥3) on a log 2 scale, solid lines are fitted dose response curves, and dashed lines show the 95% confidence range of the fit. IC50

[3] = system: HEK 293 cells; test: XTT cell viability cytotoxicity assay; conditions: n = 3, 24 h treatment
[4] = system: MDR AB BAA 1605; test: Broth microdilution antimicrobial susceptibility assay, MDR isolate; conditions: Acinetobacter baumannii, BAA1605, read-out: MIC, MDR AB BAA 1605
[5] = system: AB BAA 1605; test: Checkerboard assay with colistin sulfate, BAA 1605; conditions: without partner drug
[6] = system: AB ATCC 17978; test: Checkerboard assay with colistin sulfate, ATCC 17978; conditions: without partner drug
[7] = inverted inner membrane vesicles, 0.0625-64 µg/mL, n≥3, Table S1, read-out: AB ATP Synthase Inhibition IC50 (converted)
[8] = Figure 2, read-out: IC50, AB ATP synthase inhibition (converted)

T1 sequence (A3M139 whole entry): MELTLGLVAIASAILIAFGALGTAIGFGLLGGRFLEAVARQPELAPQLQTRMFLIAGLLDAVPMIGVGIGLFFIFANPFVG

MIC alone, AB BAA 1605 [5]	MIC alone, AB ATCC 17978 [6]	Compound	MIC [1]	Hill coefficient (Hill slope) [2]	IC50 [2, 7]	MIC, HEK 293 (cytotoxicity) [3]	MIC [4]	Hill coefficient (Hill slope) ([2]; listed as WSA305)	IC50 [2, 8]
		CCN1CCC(CCNCc2cc(-c3ccc(F)cc3)cnc2SCc2ccccc2)CC1 [WSA 307]	32 µg/mL (≈ 69 µM)	-0.8	1.16 µM	8 µg/mL (≈ 17.3 µM)	32 µg/mL (≈ 69 µM)		
		CNC(C)C1CCC(N)C(OC2C(N)CC(N)C(OC3OCC(C)(O)C(NC)C3O)C2O)O1 (stereo not drawn) [Gentamicin, reference compound]	8 µg/mL (≈ 16.8 µM)				> 16 µg/mL		
		CCN1CCC(CCNCc2cc(-c3ccc(OC)cc3)cnc2SCc2ccccc2)CC1 [WSA 305]	32 µg/mL (≈ 67.3 µM)	-0.6	0.568 µM	4 µg/mL (≈ 8.41 µM)	32 µg/mL (≈ 67.3 µM)	-0.7	
		CCN1CCC(CCNCc2cc(-c3ccc(C)cc3)cnc2SCc2ccccc2)CC1 [WSA 300]	16 µg/mL (≈ 34.8 µM)	-0.7	0.674 µM	4 µg/mL (≈ 8.7 µM)	32 µg/mL (≈ 69.6 µM)		
		Fc1ccc(-c2cnc(SCc3ccccc3)c(CNCCC3CCN(C4CCCC4)CC3)c2)c(F)c1 [WSA 292]	16 µg/mL (≈ 30.7 µM)	-1.1	0.997 µM	4 µg/mL (≈ 7.67 µM)	32 µg/mL (≈ 61.3 µM)		
		CCN1CCC(CCNCc2cc(-c3ccccc3)cnc2SCc2ccccc2)CC1 [WSA 304]	32 µg/mL (≈ 71.8 µM)	-0.7	1.37 µM	8 µg/mL (≈ 18 µM)	64 µg/mL (≈ 144 µM)		
		COc1ccc(-c2cnc(SCc3ccccc3)c(CNCCC3CCN(C4CCCC4)CC3)c2)cc1F [WSA 290]	32 µg/mL (≈ 60 µM)	-0.7	0.356 µM	4 µg/mL (≈ 7.49 µM)	32 µg/mL (≈ 60 µM)		
		CN1CCN(CCNCc2cccnc2SCc2ccccc2)CC1 [WSA 268]	> 128 µg/mL	-0.5	> 180 µM		> 128 µg/mL		
		CN1CCN(CCNCc2cc(Br)cnc2SCc2ccccc2)CC1 [WSA 271]	> 128 µg/mL	-0.7	2.3 µM	64 µg/mL (≈ 147 µM)	> 128 µg/mL		
		CN(C)c1ccc(-c2cnc(SCc3ccccc3)c(CNCCC3CCN(C4CCCC4)CC3)c2)cc1 [WSA 303]	64 µg/mL (≈ 121 µM)	-1.2	1.19 µM	4 µg/mL (≈ 7.56 µM)	128 µg/mL (≈ 242 µM)		
		c1ccc(CSc2ncccc2CNCc2ccc(CN3CCCC3)cc2)cc1 [WSA 267]	128 µg/mL (≈ 317 µM)	-0.7	91.7 µM		128 µg/mL (≈ 317 µM)		
		Fc1ccc(-c2cnc(SCc3ccccc3)c(CNCc3ccc(CN4CCCC4)cc3)c2)c(F)c1 [WSA 299]	32 µg/mL (≈ 62.1 µM)	-1.1	2.13 µM	16 µg/mL (≈ 31 µM)	128 µg/mL (≈ 248 µM)		
		c1ccc(CSc2ncc(-c3ccccc3)cc2CNCCC2CCN(C3CCCC3)CC2)cc1 [WSA 302]	64 µg/mL (≈ 132 µM)	-0.8		16 µg/mL (≈ 32.9 µM)	64 µg/mL (≈ 132 µM)		0.988 µM
		c1ccc(CSc2ncc(-c3ccccc3)cc2CNCc2ccc(CN3CCCC3)cc2)cc1 [WSA 294]	32 µg/mL (≈ 66.7 µM)	-0.7		8 µg/mL (≈ 16.7 µM)	32 µg/mL (≈ 66.7 µM)		1.23 µM
		c1ccc(CSc2ncccc2CNCCC2CCN(C3CCCC3)CC2)cc1 [WSA 265]	> 128 µg/mL	-0.7	132 µM		> 128 µg/mL		
1 µg/mL	2 µg/mL	colistin [reference compound]							
		COc1ccc(-c2cnc(SCc3ccccc3)c(CNCc3ccc(CN4CCCC4)cc3)c2)cc1 [WSA 296]	32 µg/mL (≈ 62.8 µM)	-0.6		16 µg/mL (≈ 31.4 µM)	128 µg/mL (≈ 251 µM)		0.863 µM
		CCN1CCC(CCNCc2cc(-c3ccc(F)cc3F)cnc2SCc2ccccc2)CC1 [WSA 308]	32 µg/mL (≈ 66.4 µM)	-0.9	1.81 µM	16 µg/mL (≈ 33.2 µM)	64 µg/mL (≈ 133 µM)		
		COc1ccc(-c2cnc(SCc3ccccc3)c(CNCc3ccc(CN4CCCC4)cc3)c2)cc1F [WSA 297]	32 µg/mL (≈ 60.6 µM)	-0.8		8 µg/mL (≈ 15.2 µM)	128 µg/mL (≈ 243 µM)		0.796 µM
		CCN1CCC(CCNCc2cc(-c3ccc(OC)c(F)c3)cnc2SCc2ccccc2)CC1 [WSA 306]	32 µg/mL (≈ 64.8 µM)	-0.9	1.07 µM	16 µg/mL (≈ 32.4 µM)	32 µg/mL (≈ 64.8 µM)		
		COc1nc2ccc(Br)cc2cc1[C@@H](c1ccccc1)[C@@](O)(CCN(C)C)c1cccc2ccccc12 [Bedaquiline, bedaquiline, reference compound]				> 32 µg/mL			
		CCN1CCC(CCNCc2cccnc2SCc2ccccc2)CC1 [WSA 264]	> 128 µg/mL	-0.8	83.9 µM		> 128 µg/mL		
		Brc1cnc(SCc2ccccc2)c(CNCCC2CCN(C3CCCC3)CC2)c1 [WSA 301]	128 µg/mL (≈ 262 µM)	-0.5	2.66 µM	16 µg/mL (≈ 32.8 µM)	> 128 µg/mL		
		CCN1CCC(CCNCc2cc(Br)cnc2SCc2ccccc2)CC1 [WSA 272]	128 µg/mL (≈ 285 µM)	-0.6	4.46 µM	32 µg/mL (≈ 71.4 µM)	128 µg/mL (≈ 285 µM)		
		Cc1ccc(-c2cnc(SCc3ccccc3)c(CNCc3ccc(CN4CCCC4)cc3)c2)cc1 [WSA 295]	32 µg/mL (≈ 64.8 µM)	-0.7	1.09 µM	16 µg/mL (≈ 32.4 µM)	128 µg/mL (≈ 259 µM)		
		Fc1ccc(-c2cnc(SCc3ccccc3)c(CNCCC3CCN(C4CCCC4)CC3)c2)cc1 [WSA 291]	32 µg/mL (≈ 63.5 µM)	-1.1	1.19 µM	<2 µg/mL	32 µg/mL (≈ 63.5 µM)		
		CN1CCN(CCNCc2cc(-c3ccccc3)cnc2SCc2ccccc2)CC1 [WSA 277]	32 µg/mL (≈ 74 µM)	-0.7	2.17 µM	16 µg/mL (≈ 37 µM)	128 µg/mL (≈ 296 µM)		
		Brc1cnc(SCc2ccccc2)c(CNCc2ccc(CN3CCCC3)cc2)c1 [WSA 293]	32 µg/mL (≈ 66.3 µM)	-1.2	3.73 µM	64 µg/mL (≈ 133 µM)	64 µg/mL (≈ 133 µM)		
		COc1ccc(-c2cnc(SCc3ccccc3)c(CNCCN3CCN(C)CC3)c2)cc1 [WSA 278]	64 µg/mL (≈ 138 µM)	-0.8		16 µg/mL (≈ 34.6 µM)	128 µg/mL (≈ 277 µM)		2.07 µM
